Measured values: US8133709B2, “Target sequences for synthetic molecules” (Life Technologies Corporation, priority 2003, dated 2012)

Tests used:
[1] = target: T1, AcpS+4Cys (SlyD tetracysteine sequence […] on AcpS) (Escherichia coli, UniProt P24224); assay: FlAsH-EDT2 labeling of in vitro synthesised protein, SDS-PAGE, UV light box; format: binding; conditions: 10 μM in LDS sample buffer, 70° C. 10 minutes; compared with CCPGCC; FIG. 14
T1 construct: made in house; host or cells: Cell-free: Expressway in vitro protein synthesis kit, S30 E. coli extract, from a pRSET vector
T1 sequence (P24224 with tags, fused parts or gaps): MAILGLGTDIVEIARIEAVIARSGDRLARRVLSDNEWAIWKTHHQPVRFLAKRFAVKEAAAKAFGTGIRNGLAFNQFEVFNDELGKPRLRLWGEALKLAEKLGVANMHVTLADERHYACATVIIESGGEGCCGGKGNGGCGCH
From the text: A target sequence that includes the SlyD (SEQ. ID NO: 4) tetracysteine sequence, CCGGKGNGGCGC (SEQ. ID NO: 5) was introduced onto the Carboxy-terminus of Acyl Carrier Protein S (AcpS). Since AcpS has only one endogenous cysteine amino acid and since AcpS is a robust stable protein, a substitution at the Carboxy-terminus could be made without altering the solubility of the properly folded protein. […] ID NO: 6. The mutated AcpS is referred to as AcpS+4Cys. The substitutions were generated using polymerase chain reaction with primers specific for the encoding the expression of the desired tetracysteine sequence. The nucleic acid sequence encoding the cysteine substituted AcpS was inserted into the pRSET vector (Invitrogen, Carlsbad, Calif., Catalog #V351-20) using restriction sites inherent to the vector's multiple cloning site. After amplification in DH5 bacteria, the vector was expressed using in vitro transcription and translation. See also, U.S. Provisional Patent Application No. 60/614,590, filed Oct. 1, 2004 and U.S. patent application Ser. No. 10/954,951, filed Oct. 1, 2004, incorporated by reference herein in their entireties, disclosing additional compositions and methods for in vitro transcription and translation.
In vitro protein synthesis was carried out using the Expressway™ in vitro protein synthesis kit (Invitrogen, Carlsbad, Calif., Catalog #K9600-02). […]

[2] = target: T2, ACP-CCPGCC (tetracysteine version of Acyl Carrier protein) (Escherichia coli, UniProt P0A6A8); assay: as above; format: binding; conditions: 10 μM in LDS sample buffer, 70° C. 10 minutes; control; FIG. 14
T2 construct: made in house; host or cells: Cell-free: Expressway in vitro protein synthesis kit (S30 E. coli extract)
Experimental: In vitro protein synthesis was carried out using the Expressway™ in vitro protein synthesis kit (Invitrogen, Carlsbad, Calif., Catalog #K9600-02). Following the manufacture's protocol 1 μg of AcpS vector DNA was added to a total volume of 50 μL of S30 E. coli extract and reaction buffer. As a control, a tetracysteine (CCPGCC) (SEQ. ID NO: 53) version of Acyl Carrier protein (ACP) (SEQ. ID NO: 7) was also expressed via the Expressway™ kit. The reaction was placed at 37° C. with 225 rpm shaking for two hours. After incubation 5 μL of RNase A was added to the reaction, after which an additional 15 minute incubation at 37° C. was performed. Protein from the in vitro protein synthesis reaction was prepared for SDS-PAGE analysis through an acetone precipitation procedure. 5 μl of reaction was added to 20 μL of 100% acetone. After mixing well the acetone solution was centrifuged for 5 minutes at room temperature in a microcentrifuge at 12,000 rpm. The supernatant was removed and the pellet was allowed to dry for 5 minutes. The pellet was resuspended in a 50 μL volume of LDS sample buffer (Invitrogen, Carlsbad, Calif., Catalog #NP0007) containing 10 μM FlAsH-EDT2. The samples were heated to 70° C. for 10 minutes and 10 μL of the samples were then loaded onto a 4-12% NUPAGE® pre-cast gel (Invitrogen, Carlsbad, Calif.) using MES running buffer. […]

SlyD+His tag = target: T3, SlyD+His tag (Escherichia coli, UniProt P0A9K9); assay: Binding mode: FlAsH-EDT2 labeling of in vitro synthesised SlyD versions, SDS-PAGE; conditions: 10 μM in LDS sample buffer; FIG. 15
T3 construct: Lane 1 is full length, hexahistidine tagged SlyD (SlyD+His tag); made in house; host or cells: Cell-free: Expressway in vitro protein synthesis kit (S30 E. coli extract)
Experimental: (§1) The mode of binding of a biarsenical to a target sequence was examined using the Expressway™ in vitro protein synthesis kit (Invitrogen, Carlsbad, Calif.) and SDS-PAGE. Following the manufacture's protocol 1 μg of SlyD+His tag (SEQ. ID NO: 8), SlyD-C167A/C168A (SEQ. ID NO: 9), and SlyD-trunc171 (SEQ. ID NO: 10) vector DNAs were added to a total volume of 50 μL of S30 E. coli extract and reaction buffer. The reaction was placed at 37° C. with 225 rpm shaking for two hours. After incubation 5 μL of RNase A was added to the reaction, after which an additional 15 minute incubation at 37° C. was performed. Protein from the in vitro protein synthesis reaction was prepared for SDS-PAGE analysis through an acetone precipitation procedure. 5 μl of reaction was added to 20 μL of 100% acetone. After mixing well the acetone solution was centrifuged for 5 minutes at room temperature in a microcentrifuge at 12,000 rpm. The supernatant was removed and the pellet was allowed to dry for 5 minutes. The pellet was resuspended in a 50 μL volume of LDS sample buffer (Invitrogen, Carlsbad, Calif.) containing 10 μM FlAsH-EDT2. The samples were heated to 70° C. for 10 minutes and 10 μL of the samples were then loaded onto a 4-12% NuPAGE® pre-cast gel (Invitrogen, Carlsbad, Calif., Catalog #NP0239 Box) using MES running buffer. The gel was electrophoresed at 200 volts for about 30 minutes. Immediately following electrophoresis the gel was removed from the cassette and visualized on a UV light box.

SlyD-C167A/C168A = target: T4, SlyD-C167A/C168A (Escherichia coli, UniProt P0A9K9, C167A/C168A); assay: as above; conditions: 10 μM in LDS sample buffer; FIG. 15
T4 construct: Lane 2 is full length, hexahistidine tagged SlyD with two point mutations; made in house; host or cells: Cell-free: Expressway in vitro protein synthesis kit (S30 E. coli extract)
Experimental: as §1

SlyD-trunc171 = target: T5, SlyD-trunc171 (Escherichia coli, UniProt P0A9K9); assay: as above; conditions: 10 μM in LDS sample buffer; FIG. 15
T5 construct: a hexahistidine tagged version of SlyD truncated after position 171 (SlyD-trunc171); made in house; host or cells: Cell-free: Expressway in vitro protein synthesis kit (S30 E. coli extract)
Experimental: as §1

[3] = target: T6, SlyD+His tag (SlyD tetracysteine sequence) (Escherichia coli, UniProt P0A9K9); assay: Specificity: labeling of a mixture of purified proteins, SDS-PAGE, laser gel scanner; format: binding; conditions: 10 μM in SDS-PAGE sample buffer; ACP:SlyD approximately 2:1; FIG. 17
T6 construct: made in house; host or cells: E. coli BL21 (DE3), pRSET vector, Ni-NTA purified
Experimental: The native SlyD sequence (SEQ. ID NO: 4) was cloned into the pRSET vector (Invitrogen, Carlsbad, Calif.) using standard molecular biology techniques. Purified protein was produced from this vector by first transforming BL21 (DE3) cells (Invitrogen, Carlsbad, Calif., Catalog #C6010-03) and plated on LB-ampicillin plates. A single colony was selected and grown in one liter of liquid LB broth to a density of 1 O.D. and 1 mM IPTG was added to induce protein expression. After three hours of protein induction the culture was harvested by centrifugation at 10,000×g for 5 minutes at 4° C. The cell pellet was resuspended in 50 mM HEPES (pH 7.5), 140 mM NaCl and sonicated on ice for a total of two minutes. The E. coli lysate was separated by centrifugation at 25,000×g for 20 minutes at 4° C. The supernatant contained the soluble protein and consequently it was loaded onto a Ni^2+-NTA column equilibrated in 50 mM HEPES (pH 7.5), 140 mM NaCl buffer. The column was washed with three column volumes of 50 mM HEPES (pH 7.5), 140 mM NaCl and non-specific binding proteins were removed by washing with 50 mM HEPES (pH 7.5), 140 mM NaCl, and 20 mM Imidazole. To elute the desired hexahistidine tagged SlyD, a solution of 50 mM HEPES (pH 7.5), 140 mM NaCl, and 250 mM Imidazole was added to the column. The protein eluted at greater than 90% purity. […]

ACP = target: T7, ACP (Escherichia coli, UniProt P0A6A8); assay: as above; format: binding; conditions: 10 μM in SDS-PAGE sample buffer; ACP:SlyD approximately 2:1; FIG. 17
T7 construct: inferred for this product (C); purchased Invitrogen, Madison, Wis; P3080
Experimental: ACP (Invitrogen, Madison, Wis., Catalog #P3080) was mixed at approximately 2:1 molar ratio with SlyD-His tag. The proteins were put in SDS-PAGE sample buffer supplemented with 10 μM FlAsH-EDT2, Cy3-EDT2, or Cy5-EDT2 and electrophoresed at 150 volts on a 4-20% Tris-glycine pre-cast Novex gel (Invitrogen, Carlsbad, Calif.). Immediately following electrophoresis the gel was imaged on a Fuji Film FLA 5000 laser gel scanner. […] Therefore, the SlyD tetracysteine sequence (SEQ. ID NO: 5) uniquely binds to biarsenical molecules and not to […].

T4 sequence (P0A9K9 with tags, fused parts or gaps C167A/C168A): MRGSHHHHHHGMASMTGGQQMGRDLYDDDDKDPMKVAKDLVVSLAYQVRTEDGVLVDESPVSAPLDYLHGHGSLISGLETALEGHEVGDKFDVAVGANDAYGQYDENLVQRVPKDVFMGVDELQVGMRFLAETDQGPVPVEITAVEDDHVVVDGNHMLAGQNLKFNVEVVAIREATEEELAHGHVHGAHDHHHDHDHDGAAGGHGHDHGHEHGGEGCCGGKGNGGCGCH
T5 sequence (P0A9K9 with tags, fused parts or gaps): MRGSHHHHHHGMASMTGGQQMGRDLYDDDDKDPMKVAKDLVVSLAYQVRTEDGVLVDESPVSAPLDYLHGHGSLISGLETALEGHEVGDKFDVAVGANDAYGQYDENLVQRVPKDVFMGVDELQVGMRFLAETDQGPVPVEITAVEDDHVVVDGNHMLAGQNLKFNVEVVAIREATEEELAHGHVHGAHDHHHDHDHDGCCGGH
T3 sequence (P0A9K9 with tags, fused parts or gaps): as the sequence (P0A9K9 with tags, fused parts or gaps C167A/C168A) above, with A200C, A201C counted along it
T6 sequence (P0A9K9 with tags, fused parts or gaps): as the sequence (P0A9K9 with tags, fused parts or gaps C167A/C168A) above, with A200C, A201C counted along it
T2 sequence (P0A6A8 with tags, fused parts or gaps): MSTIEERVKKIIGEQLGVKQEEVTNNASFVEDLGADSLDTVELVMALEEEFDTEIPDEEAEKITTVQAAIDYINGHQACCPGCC
T7 sequence (P0A6A8 with tags, fused parts or gaps): as above

O=C(O)c1ccccc1-c1c2ccc(=O)c([As]3SCCS3)c-2oc2c([As]3SCCS3)c(O)ccc12 [FlAsH-EDT2]
labeling of the CCGGKGNGGCGC sequence (AcpS+4Cys) [1]: equivalent labeling
labeling of the CCPGCC sequence (ACP) [2]: equivalent labeling
labeling of SlyD+His tag (SlyD+His tag): identical labeling
labeling of SlyD-C167A/C168A (SlyD-C167A/C168A): identical labeling
labeling of SlyD-trunc171 (only a vicinal pair of cysteines) (SlyD-trunc171): only two cysteines are required for biarsenical labeling
binding/labeling of SlyD+His tag [3]: binds to both SlyD+His tag and ACP
binding/labeling of ACP (ACP): binds to both SlyD+His tag and ACP
